What was measured:
MAO-B = biological target: T1, MAO-B (Rattus norvegicus, UniProt P19643); assay: In vitro inhibition of monoamine oxidase B (substrate phenylethylamine, PEA; mitochondrial suspension of rat brain); format: biochemical; conditions: for IC50: PEA substrate, 20 min preincubation, reaction 10 min
T1 construct: using, as enzyme source, a mitochrondrial suspension of the brain of a rat; from tissue; host or cells: rat brain, mitochondrial suspension
T1 sequence (P19643 1-520): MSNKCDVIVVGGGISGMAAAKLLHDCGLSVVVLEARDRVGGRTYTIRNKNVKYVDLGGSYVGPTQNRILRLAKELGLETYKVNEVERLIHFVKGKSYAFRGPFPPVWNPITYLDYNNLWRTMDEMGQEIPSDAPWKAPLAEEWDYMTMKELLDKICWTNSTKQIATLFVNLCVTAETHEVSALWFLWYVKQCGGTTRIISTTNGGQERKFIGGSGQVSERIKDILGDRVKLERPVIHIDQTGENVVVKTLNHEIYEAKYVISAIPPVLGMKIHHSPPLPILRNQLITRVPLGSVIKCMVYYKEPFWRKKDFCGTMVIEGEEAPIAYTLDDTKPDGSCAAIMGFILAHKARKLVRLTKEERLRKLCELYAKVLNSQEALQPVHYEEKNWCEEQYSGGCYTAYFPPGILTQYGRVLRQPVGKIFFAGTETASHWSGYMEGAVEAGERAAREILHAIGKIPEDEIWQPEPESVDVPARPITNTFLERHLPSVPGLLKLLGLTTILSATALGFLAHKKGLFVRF
Experimental: The quantitative determination of the MAO, activity was made up by using, as enzyme source, a mitochrondrial suspension of the brain of a rat. The standard determination consists in preincubating the enzyme for 20 minutes in the absence then in the presence of the inhibitors. […] The operating method used is that of the protocol of P. C. Baker, Dev. Biol. 14, 267 (1966). The results expressed in terms of CI50 (50% inhibiting concentration) obtained with a certain number of derivatives (I) are shown in tables VII and VIII hereafter.

MAO-A = biological target: T2, MAO-A (Rattus norvegicus, UniProt P21396); assay: In vitro inhibition of monoamine oxidase A (substrate serotonine, 5-HT; mitochondrial suspension of rat brain); format: biochemical; conditions: 5-HT substrate; for IC50: Table VII, 20 min preincubation, reaction 40 min; for inhibition at 1 µM: read-out: % of inhibition of MAO-A at a concentration of 10^-6 M, Table VIII, at a concentration of 10^-6 M
T2 construct: using, as enzyme source, a mitochrondrial suspension of the brain of a rat; from tissue; host or cells: rat brain, mitochondrial suspension
T2 sequence (P21396 1-526): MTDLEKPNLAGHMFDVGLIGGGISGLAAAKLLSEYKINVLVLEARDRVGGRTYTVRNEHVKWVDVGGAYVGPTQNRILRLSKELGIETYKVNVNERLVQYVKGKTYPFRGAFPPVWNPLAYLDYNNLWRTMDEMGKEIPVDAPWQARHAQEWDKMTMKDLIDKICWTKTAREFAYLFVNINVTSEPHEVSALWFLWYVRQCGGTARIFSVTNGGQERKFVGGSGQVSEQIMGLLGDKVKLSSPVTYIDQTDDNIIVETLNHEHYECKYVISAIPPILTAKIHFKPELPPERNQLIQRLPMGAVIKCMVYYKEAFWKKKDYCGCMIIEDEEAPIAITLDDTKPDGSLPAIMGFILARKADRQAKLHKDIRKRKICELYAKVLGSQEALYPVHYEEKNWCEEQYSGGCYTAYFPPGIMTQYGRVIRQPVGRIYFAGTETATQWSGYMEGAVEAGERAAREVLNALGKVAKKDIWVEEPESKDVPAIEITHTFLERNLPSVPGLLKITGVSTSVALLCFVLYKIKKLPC
Experimental: The quantitative determination of the MAO, activity was made up by using, as enzyme source, a mitochrondrial suspension of the brain of a rat. The standard determination consists in preincubating the enzyme for 20 minutes in the absence then in the presence of the inhibitors. The activities are determined by using respectively serotonine (5-HT) and phenylethylamine (PEA) as substrates of the MAO-A and of MAO-B, the reaction times being 40 minutes with 5-HT and 10 minutes with PEA. The operating method used is that of the protocol of P. C. Baker, Dev. Biol. 14, 267 (1966).
The results expressed in terms of CI50 (50% inhibiting concentration) obtained with a certain number of derivatives (I) are shown in tables VII and VIII hereafter.

mice = conditions: mouse, in vivo, 1500 mg/kg

Compound | IC50 (MAO-B; Table VII) [nM] | inhibition at 1 µM (MAO-A) [%] | IC50 (MAO-B; Table VIII) [nM] | further results
N#CCCCn1nnc(-c2ccccc2)n1 [5-phenyl 2-tetrazole butyronitrile, reference compound] | – | – | – | pharmacological activity: selective inhibition of MAO-B (MAO-B): selective inhibitiopn of the monoamine oxidase of type B (MAO-B)
N#CCCCCn1nnc(-c2ccccc2)n1 [5-phenyl 2-tetrazole valeronitrile, reference compound] | – | – | – | pharmacological activity: selective inhibition of MAO-B (MAO-B): selective inhibitiopn of the monoamine oxidase of type B (MAO-B)
N#CCCn1nnc(-c2ccc(OCc3cccc(Cl)c3)cc2)n1 [Code No. 1, 5-[4-(3-chlorobenzyloxy)phenyl] 2-tetrazole propanenitrile] | 2.2 | – | – | IC50 (MAO-A): 150 µM; toxicity after oral administration (mice): no toxicity was observed
N#CCCn1nnc(-c2ccc(OCc3ccccc3)cc2)n1 [Code No. 7] | 2.3 | – | – | IC50 (MAO-A): 86 µM; toxicity after oral administration (mice): no toxicity was observed
N#CCCn1nnc(-c2ccc(-c3ccccc3)cc2)n1 [compound 13] | – | – | – | IC50 (MAO-A): 7.8 µM
N#CCCCn1nnc(-c2ccc(-c3ccccc3)cc2)n1 [compound 14] | 1200 | – | – | IC50 (MAO-A): 9.6 µM
N#CCCCCCCn1nnc(-c2ccc(-c3ccccc3)cc2)n1 [compound 16] | 5400 | – | – | IC50 (MAO-A): 46 µM
OCCn1nnc(-c2ccc(OCc3ccccc3)cc2)n1 [compound 17] | – | – | – | toxicity after oral administration (mice): no toxicity was observed
OCCn1nnc(-c2ccc(OCc3ccccc3Cl)cc2)n1 [compound 18] | 5.5 | – | – | IC50 (MAO-A): 88 µM
OCCn1nnc(-c2ccc(OCc3cccc(Cl)c3)cc2)n1 [compound 19] | – | – | – | toxicity after oral administration (mice): no toxicity was observed
OCCn1nnc(-c2ccc(OCc3ccc(Cl)cc3)cc2)n1 [compound 20] | 8 | – | – | IC50 (MAO-A): 60 µM
OCCn1nnc(-c2ccc(OCc3ccc(Cl)c(Cl)c3)cc2)n1 [compound 23] | 24 | – | – | IC50 (MAO-A): 140 µM
OCCCCCCn1nnc(-c2ccc(-c3ccccc3)cc2)n1 [compound 27] | 16400 | – | – | IC50 (MAO-A): 80 µM
N#CCn1nnc(-c2ccc(OCc3ccccc3)cc2)n1 [compound 29] | – | 3 | 100 | –
COCn1nnc(-c2ccc(OCc3ccccc3)cc2)n1 [compound 30] | 1600 | – | – | –
Cc1ccc(COc2ccc(-c3nnn(CC#N)n3)cc2)cc1 [compound 31] | – | – | 1600 | –
Cc1ccc(COc2ccc(-c3nnn(CCC#N)n3)cc2)cc1 [compound 32] | 570 | – | – | –
Cc1ccc(COc2ccc(-c3nnn(CCO)n3)cc2)cc1 [compound 33] | – | 0 | 8000 | –
Cc1cccc(COc2ccc(-c3nnn(CCC#N)n3)cc2)c1 [compound 35] | – | 5 | 200 | –
Cc1cccc(COc2ccc(-c3nnn(CCO)n3)cc2)c1 [compound 36] | – | 2 | 300 | –
Cc1ccccc1COc1ccc(-c2nnn(CC#N)n2)cc1 [compound 37] | – | 10 | 160 | –
Cc1ccccc1COc1ccc(-c2nnn(CCC#N)n2)cc1 [compound 38] | – | 6 | 110 | –
Cc1ccccc1COc1ccc(-c2nnn(CCO)n2)cc1 [compound 39] | – | 3 | 290 | –

Compound | IC50 (MAO-B; Table VII) [nM] | inhibition at 1 µM (MAO-A) [%] | IC50 (MAO-B; Table VIII) [nM] | further results
COc1ccc(COc2ccc(-c3nnn(CCC#N)n3)cc2)cc1 [compound 41] | – | 9 | 3400 | –
COc1ccc(COc2ccc(-c3nnn(CCO)n3)cc2)cc1 [compound 42] | 4700 | – | – | –
COc1cccc(COc2ccc(-c3nnn(CCC#N)n3)cc2)c1 [compound 44] | – | 0 | 400 | –
COc1cccc(COc2ccc(-c3nnn(CCO)n3)cc2)c1 [compound 45] | – | 7 | 800 | –
N#CCn1nnc(-c2ccc(OCc3ccc(F)cc3)cc2)n1 [compound 46] | – | 6 | 170 | –
N#CCCn1nnc(-c2ccc(OCc3ccc(F)cc3)cc2)n1 [compound 47] | – | 2 | 210 | –
OCCn1nnc(-c2ccc(OCc3ccc(F)cc3)cc2)n1 [compound 48] | – | 2 | 270 | –
Cc1ccc(COc2ccc(-c3nnnn3CC#N)cc2)cc1 [compound 50] | – | 12 | 15 | –
COc1ccc(COc2ccc(-c3nnnn3CCO)cc2)cc1 [compound 51] | 890 | – | 900 | –
N#CCn1nnnc1-c1ccc(OCc2ccc(F)cc2)cc1 [compound 52] | – | 15 | 24 | –
OCCn1nnnc1-c1ccc(OCc2ccc(F)cc2)cc1 [compound 53] | – | 3 | 360 | –
N#CCCn1nc(-c2ccc(OCc3ccccc3)cc2)oc1=O [compound 54] | 6.4 | – | – | –
N#CCCn1nc(-c2ccc(OCc3ccccc3)cc2)oc1=S [compound 55] | 9.3 | – | – | –
N#CCCn1nc(-c2ccc(OCc3ccccc3)cc2)sc1=O [compound 56] | 16 | – | – | –
N#CCCn1nc(-c2ccc(OCc3ccccc3)cc2)sc1=S [compound 57] | 62 | – | – | –
OCCn1nnnc1-c1ccc(OCc2ccccc2I)cc1 [compound 58] | – | 3 | 3600 | –
N#CCn1nnnc1-c1ccc(OCc2ccccc2)cc1 [compound 59] | – | 4 | 67 | –
Cc1ccccc1COc1ccc(-c2nnnn2CCC#N)cc1 [compound 60] | – | 17 | 480 | –
Cc1cccc(COc2ccc(-c3nnnn3CCC#N)cc2)c1 [compound 61] | – | 1 | 270 | –
CN(C)CCn1nnc(-c2ccc(OCc3ccccc3)cc2)n1 [compound 64] | – | 15 | 280 | –
BrCCn1nnc(-c2ccc(OCc3ccccc3)cc2)n1 [compound 65] | – | 4 | 90 | –
CC(=O)NCCn1nnc(-c2ccc(OCc3ccccc3)cc2)n1 [compound 66] | – | 3.7 | 1500 | –
NCCn1nnc(-c2ccc(OCc3ccccc3)cc2)n1 [compound 68] | – | 6 | 70 | –
